Earlier results on 1 molecule are cited in patent US20180256623A1, “COMPOSITIONS AND METHOD FOR REGULATING ADIPOSE TISSUE LIPOLYSIS, INSULIN-RESISTANCE, AND HYPERGLYCEMIA” (University of Virginia Patent Foundation, priority 2015, published 2018).

SMILES strings stand for the structures. Where two headings read alike, the source gives them in different places.

For one data set, the target named is T1, hormone-sensitive lipase (Homo sapiens, UniProt Q05469).
T1 sequence (Q05469 1-1076): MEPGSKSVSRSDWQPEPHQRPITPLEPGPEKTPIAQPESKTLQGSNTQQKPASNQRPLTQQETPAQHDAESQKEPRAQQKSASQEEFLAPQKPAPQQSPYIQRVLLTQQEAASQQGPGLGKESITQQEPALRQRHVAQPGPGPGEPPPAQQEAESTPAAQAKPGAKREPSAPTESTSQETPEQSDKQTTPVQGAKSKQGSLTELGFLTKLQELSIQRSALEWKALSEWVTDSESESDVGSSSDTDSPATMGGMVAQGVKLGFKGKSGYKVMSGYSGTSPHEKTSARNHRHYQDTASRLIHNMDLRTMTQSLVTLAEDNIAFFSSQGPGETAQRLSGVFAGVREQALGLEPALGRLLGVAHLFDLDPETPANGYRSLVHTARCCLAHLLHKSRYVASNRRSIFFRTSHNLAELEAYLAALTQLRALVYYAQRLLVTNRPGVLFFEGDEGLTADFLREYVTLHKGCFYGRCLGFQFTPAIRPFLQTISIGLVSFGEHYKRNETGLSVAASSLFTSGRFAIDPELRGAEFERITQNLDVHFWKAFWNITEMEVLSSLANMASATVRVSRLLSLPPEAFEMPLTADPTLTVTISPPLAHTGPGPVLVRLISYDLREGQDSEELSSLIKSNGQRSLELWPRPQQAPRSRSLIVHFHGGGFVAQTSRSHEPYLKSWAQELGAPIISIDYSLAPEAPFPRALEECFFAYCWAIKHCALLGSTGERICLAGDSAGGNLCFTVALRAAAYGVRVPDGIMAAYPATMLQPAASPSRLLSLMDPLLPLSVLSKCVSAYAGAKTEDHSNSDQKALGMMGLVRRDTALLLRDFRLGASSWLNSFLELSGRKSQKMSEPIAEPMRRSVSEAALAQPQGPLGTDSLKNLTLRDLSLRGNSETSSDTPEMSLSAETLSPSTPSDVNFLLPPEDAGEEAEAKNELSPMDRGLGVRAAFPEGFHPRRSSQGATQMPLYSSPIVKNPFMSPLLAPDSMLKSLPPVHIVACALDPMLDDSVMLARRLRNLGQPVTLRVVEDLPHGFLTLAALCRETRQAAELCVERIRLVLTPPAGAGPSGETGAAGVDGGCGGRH
To be noted: cited from earlier work.

The next data set addresses T2, monoglyceride lipase (Homo sapiens, UniProt Q99685).
T2 sequence (Q99685 1-303): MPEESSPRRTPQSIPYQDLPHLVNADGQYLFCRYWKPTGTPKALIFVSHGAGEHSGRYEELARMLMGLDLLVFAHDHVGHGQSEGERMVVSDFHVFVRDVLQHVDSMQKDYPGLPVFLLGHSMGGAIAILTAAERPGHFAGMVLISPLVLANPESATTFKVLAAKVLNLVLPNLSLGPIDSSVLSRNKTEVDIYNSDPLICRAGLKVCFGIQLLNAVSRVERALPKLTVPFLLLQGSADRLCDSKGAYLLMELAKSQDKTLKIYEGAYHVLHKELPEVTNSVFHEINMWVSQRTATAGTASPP
To be noted: cited from earlier work.

The target of a further data set is T3, PNPLA6 (Homo sapiens, UniProt Q8IY17).
T3 sequence (Q8IY17 1-1375): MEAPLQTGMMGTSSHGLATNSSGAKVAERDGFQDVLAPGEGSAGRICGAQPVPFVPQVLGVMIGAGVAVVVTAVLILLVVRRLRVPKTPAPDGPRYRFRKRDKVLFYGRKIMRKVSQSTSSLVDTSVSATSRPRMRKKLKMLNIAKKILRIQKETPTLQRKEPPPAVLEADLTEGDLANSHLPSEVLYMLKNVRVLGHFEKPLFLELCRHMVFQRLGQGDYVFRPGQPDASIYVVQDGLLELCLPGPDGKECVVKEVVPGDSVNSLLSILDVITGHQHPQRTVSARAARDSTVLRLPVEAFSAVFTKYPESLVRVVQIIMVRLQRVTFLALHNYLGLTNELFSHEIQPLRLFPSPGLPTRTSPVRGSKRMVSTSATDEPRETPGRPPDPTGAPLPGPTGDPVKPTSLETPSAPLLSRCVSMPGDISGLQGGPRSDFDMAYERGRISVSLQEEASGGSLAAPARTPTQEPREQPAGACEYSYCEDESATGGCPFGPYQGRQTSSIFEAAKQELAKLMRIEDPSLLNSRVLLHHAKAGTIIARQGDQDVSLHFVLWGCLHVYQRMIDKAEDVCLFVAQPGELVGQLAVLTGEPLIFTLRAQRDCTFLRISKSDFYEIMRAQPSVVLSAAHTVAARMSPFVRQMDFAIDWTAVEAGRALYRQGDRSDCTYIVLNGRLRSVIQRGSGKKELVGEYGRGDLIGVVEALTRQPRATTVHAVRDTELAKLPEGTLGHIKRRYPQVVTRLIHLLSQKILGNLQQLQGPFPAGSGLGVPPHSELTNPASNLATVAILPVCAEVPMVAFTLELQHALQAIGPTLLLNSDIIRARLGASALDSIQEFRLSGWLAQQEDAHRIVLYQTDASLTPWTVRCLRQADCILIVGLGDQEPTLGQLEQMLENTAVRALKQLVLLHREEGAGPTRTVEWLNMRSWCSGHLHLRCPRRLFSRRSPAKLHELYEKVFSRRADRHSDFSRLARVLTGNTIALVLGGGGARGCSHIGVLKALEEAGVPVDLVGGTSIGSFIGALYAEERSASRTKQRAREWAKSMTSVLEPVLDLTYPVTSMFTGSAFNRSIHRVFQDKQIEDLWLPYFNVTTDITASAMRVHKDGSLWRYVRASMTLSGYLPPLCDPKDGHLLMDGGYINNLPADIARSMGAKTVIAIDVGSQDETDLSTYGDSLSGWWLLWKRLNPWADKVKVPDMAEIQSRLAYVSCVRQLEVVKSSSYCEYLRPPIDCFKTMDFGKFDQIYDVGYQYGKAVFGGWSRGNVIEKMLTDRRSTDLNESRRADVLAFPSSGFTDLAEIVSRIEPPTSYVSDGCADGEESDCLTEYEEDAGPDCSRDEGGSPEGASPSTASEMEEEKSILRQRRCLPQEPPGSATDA
The settings on record: cited from earlier work.

In another data set the target is PNPLA7 (Homo sapiens, UniProt Q6ZV29). The settings on record: cited from earlier work.
PNPLA7, sequence (Q6ZV29 whole entry, species assumed): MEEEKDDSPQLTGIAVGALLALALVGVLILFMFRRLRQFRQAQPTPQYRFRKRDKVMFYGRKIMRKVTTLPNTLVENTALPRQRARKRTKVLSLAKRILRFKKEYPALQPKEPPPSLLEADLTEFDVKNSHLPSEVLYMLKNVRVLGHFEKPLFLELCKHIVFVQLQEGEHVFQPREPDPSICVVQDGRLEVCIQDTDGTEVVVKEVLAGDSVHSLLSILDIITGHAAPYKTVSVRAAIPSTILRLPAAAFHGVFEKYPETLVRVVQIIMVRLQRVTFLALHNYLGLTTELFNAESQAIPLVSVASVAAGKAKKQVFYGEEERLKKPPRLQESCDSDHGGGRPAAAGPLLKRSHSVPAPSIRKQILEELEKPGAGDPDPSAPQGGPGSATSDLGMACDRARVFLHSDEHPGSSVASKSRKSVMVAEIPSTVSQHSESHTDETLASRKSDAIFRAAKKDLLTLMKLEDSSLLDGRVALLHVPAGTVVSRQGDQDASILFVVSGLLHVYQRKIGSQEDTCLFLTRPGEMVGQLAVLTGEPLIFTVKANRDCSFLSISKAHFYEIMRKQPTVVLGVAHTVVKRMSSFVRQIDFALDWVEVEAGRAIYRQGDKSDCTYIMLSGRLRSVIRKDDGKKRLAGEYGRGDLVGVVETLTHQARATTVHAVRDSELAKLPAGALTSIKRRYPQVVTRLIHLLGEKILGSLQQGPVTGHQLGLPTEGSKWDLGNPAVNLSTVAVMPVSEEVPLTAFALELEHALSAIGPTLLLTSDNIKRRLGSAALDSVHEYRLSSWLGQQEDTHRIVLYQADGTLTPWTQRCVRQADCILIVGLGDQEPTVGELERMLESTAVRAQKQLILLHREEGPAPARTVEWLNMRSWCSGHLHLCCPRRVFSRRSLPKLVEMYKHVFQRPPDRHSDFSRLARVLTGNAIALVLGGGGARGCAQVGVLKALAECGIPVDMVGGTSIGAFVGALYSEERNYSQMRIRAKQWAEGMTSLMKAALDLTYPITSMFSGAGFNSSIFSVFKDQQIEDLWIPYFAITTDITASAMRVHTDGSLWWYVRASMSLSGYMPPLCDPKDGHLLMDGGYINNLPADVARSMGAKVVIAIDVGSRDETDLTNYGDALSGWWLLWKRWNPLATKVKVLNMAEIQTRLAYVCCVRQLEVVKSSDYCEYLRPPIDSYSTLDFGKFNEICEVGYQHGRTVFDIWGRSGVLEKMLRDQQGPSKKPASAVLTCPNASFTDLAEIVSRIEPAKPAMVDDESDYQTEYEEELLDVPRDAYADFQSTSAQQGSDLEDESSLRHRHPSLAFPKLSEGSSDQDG
Data set [1] concerns lipolysis by ATGL. The settings on record: in vitro; cited from earlier work.
The subject of data set [2] is lipolysis by ATGL. To be noted: in vivo; cited from earlier work.

For the molecule `CN(C)C(=O)Nc1cccc(-c2ccc(N(C)C)cc2)c1` [Atglistatin, N′-[4′-(dimethylamino) [1,1′-biphenyl]-3-yl]-N,N-dimethyl-urea], the “inhibition of hormone-sensitive lipase” value on hormone-sensitive lipase was “does not inhibit”. For the same molecule, the “inhibition of monoglyceride lipase” value at monoglyceride lipase is listed as “does not inhibit”. The “inhibition of PNPLA6” value at PNPLA6 was “does not inhibit”. Further, at PNPLA7, the “inhibition of PNPLA7” value is “does not inhibit”. Moreover, the “lipolysis by ATGL (fatty acid mobilization)” value in the data set on lipolysis by ATGL [1] and with lipolysis by ATGL [2] was “blocks lipolysis” each time.
